Test results: US9737535B2, “Methods for treating cancer using TOR kinase inhibitor combination therapy comprising administering substituted pyrazino[2,3-b]pyrazines” (Signal Pharmaceuticals, LLC, priority 2014, dated 2017)
Structures can show the parent of a compound that is named as a salt.

Tests used:
Assay in all cases: Anti-proliferation assay (ATPLite), Chalice synergy score
Assay type in all cases: cell-based
[1] = tested on: MCF7; conditions: Compound 1 in combination with second active agent, mean self-cross + 2σ threshold 3.07
Excerpt: (§1) Cells were thawed from a liquid nitrogen preserved state.
(§2) The calculation for synergy score is provided below.
(§3) If T≧V0:100*[1−(T−V0)/(V−V0)]

[2] = tested on: HCC70; conditions: Compound 1 in combination with second active agent; HCC-70; mean self-cross + 2σ threshold 3.45
Excerpt: as §1, §2, §3

[3] = tested on: HCC-1806; conditions: Compound 1 in combination with the named second active agent, 72 h, mean of n = 3 experiments in triplicate
Excerpt: as §1, §2, §3

[4] = tested on: HCC-1428; conditions: Compound 1 in combination with the named second active agent, 72 h, mean of n = 3 experiments in triplicate
Excerpt: as §1, §2, §3

[5] = tested on: BT-474; conditions: Compound 1 in combination with the named second active agent, 72 h, mean of n = 3 experiments in triplicate
Excerpt: as §1, §2, §3

[6] = tested on: MDA-MB-468; conditions: Compound 1 in combination with second active agent, mean self-cross + 2σ threshold 4.66
Excerpt: as §1, §2, §3

[7] = tested on: Hs-578-T; conditions: Compound 1 in combination with second active agent, mean self-cross + 2σ threshold 4.09
Excerpt: as §1, §2, §3

[8] = tested on: HCC-1937; conditions: Compound 1 in combination with the named second active agent, 72 h, mean of n = 3 experiments in triplicate
Excerpt: as §1, §2, §3

[9] = tested on: MDA-MB-231; conditions: Compound 1 in combination with second active agent, mean self-cross + 2σ threshold 2.61
Excerpt: as §1, §2, §3

[10] = tested on: MDA-MB-436; conditions: Compound 1 in combination with second active agent, mean self-cross + 2σ threshold 1.91
Excerpt: as §1, §2, §3

[11] = tested on: BT-549; conditions: Compound 1 in combination with the named second active agent, 72 h, mean of n = 3 experiments in triplicate
Excerpt: as §1, §2, §3

[12] = tested on: MDA-MB-157; conditions: Compound 1 in combination with second active agent, mean self-cross + 2σ threshold 4.68
Excerpt: as §1, §2, §3

[13] = tested on: BT-20; design: scale not given here; conditions: Compound 1 in combination with the named second active agent, 72 h, mean of n = 3 experiments in triplicate
Excerpt: as §1, §2, §3

[14] = tested on: HCC-1187; design: scale not given here; conditions: Compound 1 in combination with the named second active agent, 72 h, mean of n = 3 experiments in triplicate
Excerpt: as §1, §2, §3

[15] = tested on: HCC-1500; design: scale not given here; conditions: Compound 1 in combination with the named second active agent, 72 h, mean of n = 3 experiments in triplicate
Excerpt: as §1, §2, §3

Molecule	Synergy score [1]	Synergy score [2]	Synergy score [3]	Synergy score [4]	Synergy score [5]	Synergy score [6]	Synergy score [7]	Synergy score [8]	Synergy score [9]	Synergy score [10]	Synergy score [11]	Synergy score [12]	Synergy score [13]	Synergy score [14]	Synergy score [15]
CC[C@@]1(O)C(=O)OCc2c1cc1n(c2=O)Cc2cc3cc(O)ccc3nc2-1 [10-Hydroxycamptothecin]	3.80	6.31	3.88	4.13	1.20	7.86	1.70	12.40	8.55	3.62	4.11	10.30	6.15	6.49	4.43
CN(C)CC[C@H](CSc1ccccc1)Nc1ccc(S(=O)(=O)NC(=O)c2ccc(N3CCN(Cc4ccccc4-c4ccc(Cl)cc4)CC3)cc2)cc1[N+](=O)[O-] [ABT-737]	6.97	9.10	6.15	10.60	4.14	8.29	10.00	5.46	10.00	0.56	6.10	4.46	7.28	8.77	4.23
C[C@]1(c2nc3c(C(N)=O)cccc3[nH]2)CCCN1 [ABT-888]	0.25	1.10	0.56	0.09	0.09	0.18	0.42	0.35	0.22	0.32	0.35	0.90	0.33	1.28	1.13
O=C(NC[C@H](O)CO)c1ccncc1Nc1ccc(I)cc1F [AS703026]	2.90	13.70	4.71	6.26	2.61	5.71	6.43	2.41	10.90	2.25	1.73	6.66	6.08	8.22	4.24
C=CC(=O)Nc1ccc2ncnc(Nc3ccc(OCc4cccc(F)c4)c(Cl)c3)c2c1 [AST-1306]	4.34	7.50	5.59	2.69	4.02	5.65	4.43	6.39	4.37	2.08	4.88	3.02	7.60	2.17	0.96
O=C(NC1CCNCC1)c1[nH]ncc1NC(=O)c1c(Cl)cccc1Cl [AT7519]	2.84	0.86	1.01	1.58	0.19	1.98	5.16	2.04	2.68	2.57	4.33	5.37	4.95	–	0.03
CS(=O)(=O)c1ccc(C(=O)Nc2ccc(Cl)c(-c3ccccn3)c2)c(Cl)c1 [GDC-0449]	–	1.10	0.20	0.07	1.47	0.44	0.28	0.88	0.08	–	–	0.77	0.11	3.07	0.78
CNC(=O)c1ccc(-c2cnc3ncc(Cc4ccc5ncccc5c4)n3n2)cc1F [INCB28060]	0.92	0.75	0.62	0.75	2.35	0.80	0.85	0.71	0.34	0.49	0.66	0.97	–	2.94	0.52
CCc1c2c(nc3ccc(OC(=O)N4CCC(N5CCCCC5)CC4)cc13)-c1cc3c(c(=O)n1C2)COC(=O)[C@]3(O)CC [Irinotecan Hydrochloride]	2.02	1.98	–	0.76	1.17	8.45	–	3.92	1.64	3.61	1.25	5.71	2.59	3.01	4.45
c1ccc2c(CCNc3ccc(Nc4ccncc4)cc3)c[nH]c2c1 [JNJ 26854165]	1.82	2.46	2.51	1.02	1.77	3.28	1.28	–	0.31	1.47	0.78	2.53	1.42	1.63	1.50
CC(C)(C)Cn1c(N)nc2ccc(-c3[nH]c(C(C)(C)C)nc3-c3ccc(F)cc3)nc21 [LY2228820]	3.76	3.65	2.81	1.80	2.81	5.77	–	–	2.18	1.32	1.26	5.64	0.20	0.80	3.91
COc1ccc(C2=N[C@@H](c3ccc(Cl)cc3)[C@@H](c3ccc(Cl)cc3)N2C(=O)N2CCNC(=O)C2)c(OC(C)C)c1 [Nutlin-3]	2.05	2.72	0.79	0.33	0.34	–	1.65	0.58	0.27	0.50	0.40	0.66	0.27	2.08	2.54
C=CC(=O)N1CCC[C@@H](n2nc(-c3ccc(Oc4ccccc4)cc3)c3c(N)ncnc32)C1 [PCI-32765]	0.13	6.29	3.72	0.59	5.95	3.10	–	1.62	0.27	0.07	0.05	3.28	6.26	1.70	0.56
CC(=O)c1c(C)c2cnc(Nc3ccc(N4CCNCC4)cn3)nc2n(C2CCCC2)c1=O [PD-0332991]	2.48	2.17	1.54	2.01	0.31	2.12	0.75	0.55	2.88	0.44	1.10	0.73	–	2.76	2.71
Oc1c2ccccc2c2c3c(cccc13)N=N2 [SP 600125]	0.75	3.49	1.16	1.44	0.72	–	0.97	0.87	0.65	0.79	1.47	1.18	0.00	5.59	1.15
CHIR98014	0.29	0.82	1.56	0.72	0.02	3.00	5.48	0.63	3.91	0.64	0.49	3.17	0.17	3.13	–
